The text below walks through data of patent US20090099199A1, “ORGANIC COMPOUNDS” (priority 2007, published 2009).

Counter-ions that a name gives are not always drawn.

This assay has as its target T1, recombinant human NPY Y2 receptors (Homo sapiens, UniProt P49146).
T1 construct: expressed in transfected cells; host or cells: CHO-C4 cells (membrane preparation)
T1 sequence (P49146 1-381): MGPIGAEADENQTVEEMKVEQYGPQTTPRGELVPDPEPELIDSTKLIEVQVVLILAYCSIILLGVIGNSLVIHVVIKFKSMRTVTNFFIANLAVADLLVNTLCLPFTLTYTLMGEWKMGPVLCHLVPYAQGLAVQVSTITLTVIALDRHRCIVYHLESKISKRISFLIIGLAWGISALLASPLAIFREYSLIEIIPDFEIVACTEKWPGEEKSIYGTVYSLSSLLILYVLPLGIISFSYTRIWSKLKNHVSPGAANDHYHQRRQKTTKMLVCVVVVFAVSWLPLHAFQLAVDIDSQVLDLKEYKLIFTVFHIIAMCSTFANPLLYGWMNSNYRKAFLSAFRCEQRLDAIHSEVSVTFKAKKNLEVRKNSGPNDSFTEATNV
Kind of assay: Scintillation proximity [35S]GTPγS binding assay (inhibition of 0.5 nM NPY-stimulated [35S]GTPγS binding). Format: biochemical. Particulars: 10 μM compound, membranes from CHO-C4 cells expressing recombinant human NPY Y2 receptors, read-out: [%] inhibiton at 10 μM. As to the method: Preparation of Membranes: CHO-C4 cells expressing recombinant human NPY Y2 receptors were used to prepare membranes for the GTPγS assay. Cells were grown to 80-95% confluency on 15-cm (225 cm^2) tissue culture plates. After aspiration of the culture medium, cells were washed twice with 18 ml ice-cold phosphate-buffered saline (PBS), scraped off and suspended in 3 ml ice-cold PBS in pre-cooled centrifuge tubes. The dishes were rinsed with 2 ml ice-cold PBS per dish and the washings were combined with the PBS cell suspension from above. Cells pooled from 5-7 dishes were centrifuged for 5 min at 10,000 rpm (12,000 g) in a Sorvall RC5B centrifuge using an SS34 rotor at 4° C. The cell pellet was resuspended in 5 ml ice-cold buffer (20 mM HEPES, 10 mM EDTA; pH 7.4) by vortexing (2-5 sec), homogenized using a Polytron (step 4 for 20-30 sec), and ice-cold buffer added to 25 ml. The suspension was centrifuged again for 20 min at 18,000 rpm (39,000 g) at 4° C. and the pellet resuspended in 5 ml ice-cold buffer (20 mM HEPES, 0.1 mM EDTA; pH 7.4) by vortexing (2-5 sec), homogenized with a Polytron (step 4 for 10 sec), and ice-cold buffer added to 25 ml. The suspension was centrifuged a third time for 20 min at 18,000 rpm (39,000 g) at 4° C. The pellet was resuspend in 1 ml ice-cold buffer (20 mM HEPES, 0.1 mM EDTA; pH 7.4) by vortexing (5-8 sec). Two to five resuspended pellets were combined and homogenized using a Polytron (step 4 for 15-25 sec). A small aliquot (20-50 μl) was removed for protein determination by the Coomassie Plus Protein Assay Reagent (Pierce) using BSA as standard. The membrane suspension was aliquoted in pre-cooled (on dry ice) Eppendorf tubes (0.25-1 ml/tube affording approximately 0.5-2 mg of membrane protein/tube). The pellets were frozen and stored at −80° C.
Scintillation proximity [^35S]GTPγS binding assay: Frozen membranes from CHO-C4 cells expressing recombinant human NPY Y2 receptors (2 mg for four 96-well plates) were thawed on ice. Thawed membranes were pipetted into 10 ml of assay buffer (20 mM HEPES, 10 mM MgCl2, 100 mM NaCl, pH 7.4) and homogenized briefly using a Polytron. The final assay mixture was prepared in 96-well microtiter plates (Isoplate Wallac, Perkin Elmer). The composition of the assay mixtures in a final volume of 250 μl per well was as follows: 20 mM HEPES, 10 mM MgCl2, 100 mM NaCl, pH 7.4, 30 μM GDP, 1 mg/ml BSA (added fresh), 5 μg membrane protein, 1.5 mg Wheatgerm agglutinin SPA beads (Amersham), 0.45 nM [^35S]GTPγS (Amersham, SJ1308. 1000 Ci/mmol, stabilized solution), and the test compounds (agonists and/or antagonists) at the appropriate concentrations. The samples were incubated at room temperature for 90 min by shaking, after which the SPA beads were sedimented by centrifugation in an Eppendorf 5804 centrifuge at 2700 rpm for 10 min at room temperature. After 60 min the plates were counted in a TopCount (Canberra). Basal [^35S]GTPγS binding was measured in the absence of agonist (NPY). Non-specific binding was measured in the presence of excess (10 μM) unlabelled GTPγS (Sigma). Nonspecific binding never exceeded 10% of basal binding and was thus not subtracted from the experimental data. Antagonists were tested for the inhibition of 0.5 nM NPY-stimulated [^35S]GTPγS binding. Antagonist inhibition curves were analyzed by non-linear regression using GraphPad Prism software (Version 4.0, GraphPad Software Inc., CA, USA).
Antagonistic activity of compounds of the present invention is examined by the Scintillation proximity [^35S]GTPγS binding assay as described above (inhibition of 0.5 nM NPY-stimulated [^35S]GTPγS binding). The table below represents percentages of inhibition at a concentration of 10 μM.
(SPA uses beads or plates that emit light when radiolabelled molecules are held near them.)
On to `Cc1noc(C)c1NC(=O)Nc1ccc(N2CCN(C(c3ccccc3)c3ccccc3)CC2)c(C#N)c1` [Compound 1, 1-[4-(4-Benzhydryl-piperazin-1-yl)-3-cyano-phenyl]-3-(3,5-dimethyl-isoxazol-4-yl)-urea], for which the inhibition at 10 µM amounted to 95%.
As for `N#Cc1cc(NC(=O)C2CCOC2)ccc1N1CCN(C(c2ccccc2)c2ccccc2)CC1` (stereo not shown) [Compound 2, Tetrahydro-furan-3-carboxylic acid [4-(4-benzhydryl-piperazin-1-yl)-3-cyano-phenyl]-amide], the figure is 89%; as for `CCC(CC)C(=O)Nc1ccc(N2CCN(C(c3ccccc3)c3ccccc3)CC2)c(C#N)c1` [Compound 3, N-[4-(4-Benzhydryl-piperazin-1-yl)-3-cyano-phenyl]-2-ethyl-butyramide], 88%; as for `Cc1noc(C)c1NC(=O)Nc1ccc(N2CCN(C(c3ccccc3)c3ccccc3)CC2)c(F)c1` [Compound 4, 1-[4-(4-Benzhydryl-piperazin-1-yl)-3-fluoro-phenyl]-3-(3,5-dimethyl-isoxazol-4-yl)-urea], 89%.
Then `O=C(Nc1ccc(N2CCN(C(c3ccccc3)c3ccccc3)CC2)c(F)c1)C1CCOC1` (stereo not shown) [Compound 5], with 85%; and `CCC(CC)C(=O)Nc1ccc(N2CCN(C(c3ccccc3)c3ccccc3)CC2)c(F)c1` [Compound 6], with 89%; and `Cc1noc(C)c1NC(=O)Nc1ccc(N2CCN(C(c3ccc(F)cc3)c3ccc(F)cc3)CC2)c(C#N)c1` [Compound 7], with 87%.
`Cc1noc(C)c1NC(=O)Nc1ccc(N2CCN(C(c3ccc(F)cc3)c3ccc(F)cc3)CC2)c(F)c1` [Compound 8, 1-(4-{4-[Bis-(4-fluoro-phenyl)-methyl]-piperazin-1-yl}-3-fluoro-phenyl)-3-(3,5-dimethyl-isoxazol-4-yl)-urea]: the inhibition at 10 µM is 86%.
As for `Cc1noc(C)c1C(=O)Nc1ccc(N2CCN(C(c3ccccc3)c3ccccc3)CC2)c(F)c1` [Compound 9, 3,5-Dimethyl-isoxazole-4-carboxylic acid [4-(4-benzhydryl-piperazin-1-yl)-3-fluoro-phenyl]-amide], the figure is 85%; as for `Cc1ncccc1C(=O)Nc1ccc(N2CCN(C(c3ccccc3)c3ccccc3)CC2)c(F)c1` [Compound 10, N-[4-(4-Benzhydryl-piperazin-1-yl)-3-fluoro-phenyl]-2-methyl-nicotinamide], 85%.
Take `Cn1cccc1C(=O)Nc1ccc(N2CCN(C(c3ccccc3)c3ccccc3)CC2)c(F)c1` [Compound 11, 1-Methyl-1H-pyrrole-2-carboxylic acid [4-(4-benzhydryl-piperazin-1-yl)-3-fluoro-phenyl]-amide]: the inhibition at 10 µM is 62%.
Turning to `Cn1nccc1C(=O)Nc1ccc(N2CCN(C(c3ccccc3)c3ccccc3)CC2)c(F)c1` [Compound 12, 2-Methyl-2H-pyrazole-3-carboxylic acid [4-(4-benzhydryl-piperazin-1-yl)-3-fluoro-phenyl]-amide], the inhibition at 10 µM is 65%.
Consider `Cc1noc(C)c1NC(=O)Nc1ccc(N2CCC(C(c3ccccc3)c3ccccc3)CC2)c(C#N)c1` [Compound 13], for which the inhibition at 10 µM was 91%.
Then `N#Cc1cc(NC(=O)C2CCOC2)ccc1N1CCC(C(c2ccccc2)c2ccccc2)CC1` (stereo not shown) [Compound 14, Tetrahydro-furan-3-carboxylic acid [4-(4-benzhydryl-piperidin-1-yl)-3-cyano-phenyl]-amide], with 90%; and `CCC(CC)C(=O)Nc1ccc(N2CCC(C(c3ccccc3)c3ccccc3)CC2)c(C#N)c1` [Compound 15, N-[4-(4-Benzhydryl-piperidin-1-yl)-3-cyano-phenyl]-2-ethyl-butyramide], with 86%.
As for `Cc1noc(C)c1NC(=O)Nc1ccc(N2CCC(C(c3ccccc3)c3ccccc3)CC2)c(F)c1` [Compound 16, 1-[4-(4-Benzhydryl-piperidin-1-yl)-3-fluoro-phenyl]-3-(3,5-dimethyl-isoxazol-4-yl)-urea], the figure is 90%; as for `O=C(Nc1ccc(N2CCC(C(c3ccccc3)c3ccccc3)CC2)c(F)c1)C1CCOC1` (stereo not shown) [Compound 17, Tetrahydro-furan-3-carboxylic acid [4-(4-benzhydryl-piperidin-1-yl)-3-fluoro-phenyl]-amide], 86%.
On to `CCC(CC)C(=O)Nc1ccc(N2CCC(C(c3ccccc3)c3ccccc3)CC2)c(F)c1` [Compound 18, N-[4-(4-Benzhydryl-piperidin-1-yl)-3-fluoro-phenyl]-2-ethyl-butyramide], for which the inhibition at 10 µM is 85%.
As for `CCC(CC)c1nc2cc(N3CCN(C(c4ccccc4)c4ccccc4)CC3)c(F)cc2[nH]1` [Compound 19, 5-(4-Benzhydryl-piperazin-1-yl)-2-(1-ethyl-propyl)-6-fluoro-1H-benzoimidazole], the figure is 82%; as for `Fc1cc2[nH]c(C3CCOC3)nc2cc1N1CCN(C(c2ccccc2)c2ccccc2)CC1` (stereo not shown) [Compound 20, 5-(4-Benzhydryl-piperazin-1-yl)-6-fluoro-2-(tetrahydro-furan-3-yl)-1H-benzoimidazole], 53%; as for `Cc1noc(C)c1-c1nc2cc(N3CCN(C(c4ccccc4)c4ccccc4)CC3)c(F)cc2[nH]1` [Compound 21, 5-(4-Benzhydryl-piperazin-1-yl)-2-(3,5-dimethyl-isoxazol-4-yl)-6-fluoro-1H-benzoimidazole], 44%.
Then `Cc1noc(C)c1Nc1nc2cc(N3CCN(C(c4ccccc4)c4ccccc4)CC3)c(F)cc2[nH]1` [Compound 22, [5-(4-Benzhydryl-piperazin-1-yl)-6-fluoro-1H-benzoimidazol-2-yl]-(3,5-dimethyl-isoxazol-4-yl)-amine triluoroacetate salt], with 71%; and `CCC(CC)Nc1nc2cc(N3CCN(C(c4ccccc4)c4ccccc4)CC3)c(F)cc2[nH]1` [Compound 23, 5-(4-Benzhydryl-piperazin-1-yl)-6-fluoro-1H-benzoimidazol-2-yl]-(1-ethyl-propyl)-amine triluoroacetate salt], with 72%.
As to `CCC(CC)C(=O)Nc1ccc(N2CCC(C(c3ccccn3)c3ccccn3)CC2)c(F)c1` [Compound 24, N-{4-[4-(Di-pyridin-2-yl-methyl)-piperidin-1-yl]-3-fluoro-phenyl}-2-ethyl-butyramide], the inhibition at 10 µM worked out at 95%.
Take `CCC(CC)C(=O)Nc1ccc(N2CCN(C(c3ccccn3)[C@H]3CCCO3)CC2)c(F)c1` (stereo partly drawn) [Compound 25, 2-Ethyl-N-{3-fluoro-4-[4-((R)-pyridin-2-yl-tetrahydro-furan-2-yl-methyl)-piperazin-1-yl]-phenyl}-butyramide]: the inhibition at 10 µM was found to be 90%.
